Values after ≈ are worked out from the molar mass of the structure shown. Active and inactive are the calls of the source. No cut-off for these calls is given here.
Legend:
[1] = test system: Burkholderia pseudomallei; assay: Antimicrobial activity against Burkholderia pseudomallei KHW in presence of 15.6 uM omeprazole; type: functional
[2] = test system: Burkholderia pseudomallei; assay: Antimicrobial activity against Burkholderia pseudomallei KHW in presence of 31.3 uM prochlorperazine; type: functional
[3] = test system: Burkholderia pseudomallei; assay: Antimicrobial activity against Burkholderia pseudomallei KHW in presence of 15.6 uM prochlorperazine; type: functional
[4] = test system: Burkholderia pseudomallei; assay: Antimicrobial activity against Burkholderia pseudomallei KHW in presence of 7.8 uM prochlorperazine; type: functional
[5] = test system: Burkholderia pseudomallei; assay: Antimicrobial activity against Burkholderia pseudomallei KHW in presence of 3.9 uM prochlorperazine; type: functional
[6] = test system: Burkholderia pseudomallei; assay: Antimicrobial activity against Burkholderia pseudomallei KHW in presence of 1000 uM promazine; type: functional
[7] = test system: Burkholderia pseudomallei; assay: Antimicrobial activity against Burkholderia pseudomallei KHW in presence of 250 uM promazine; type: functional
[8] = test system: Burkholderia pseudomallei; assay: Antimicrobial activity against Burkholderia pseudomallei KHW in presence of 125 uM promazine; type: functional
[9] = test system: Burkholderia pseudomallei; assay: Antimicrobial activity against Burkholderia pseudomallei KHW in presence of 62.5 uM promazine; type: functional
[10] = test system: Burkholderia pseudomallei; assay: Antimicrobial activity against Burkholderia pseudomallei KHW in presence of 31.3 uM promazine; type: functional
[11] = test system: Burkholderia pseudomallei; assay: Antimicrobial activity against Burkholderia pseudomallei KHW in presence of 15.6 uM promazine; type: functional
[12] = test system: Burkholderia pseudomallei; assay: Antimicrobial activity against Burkholderia pseudomallei KHW in presence of 7.8 uM promazine; type: functional
[13] = test system: Burkholderia pseudomallei; assay: Antimicrobial activity against Burkholderia pseudomallei KHW in presence of 3.9 uM promazine; type: functional
[14] = test system: Burkholderia pseudomallei; assay: Antimicrobial activity against Burkholderia pseudomallei KHW in presence of 1000 uM omeprazole; type: functional
[15] = test system: Burkholderia pseudomallei; assay: Antimicrobial activity against Burkholderia pseudomallei KHW in presence of 500 uM omeprazole; type: functional
[16] = test system: Burkholderia pseudomallei; assay: Antimicrobial activity against Burkholderia pseudomallei KHW in presence of 250 uM omeprazole; type: functional
[17] = test system: Burkholderia pseudomallei; assay: Antimicrobial activity against Burkholderia pseudomallei KHW in presence of 125 uM omeprazole; type: functional
[18] = test system: Burkholderia pseudomallei; assay: Antimicrobial activity against Burkholderia pseudomallei KHW in presence of 62.5 uM omeprazole; type: functional
[19] = test system: Burkholderia pseudomallei; assay: Antimicrobial activity against Burkholderia pseudomallei KHW in presence of 31.3 uM omeprazole; type: functional
[20] = test system: Burkholderia pseudomallei; assay: Antimicrobial activity against Burkholderia pseudomallei KHW in presence of 7.8 uM omeprazole; type: functional
[21] = test system: Burkholderia pseudomallei; assay: Antimicrobial activity against Burkholderia pseudomallei KHW in presence of 3.9 uM omeprazole; type: functional
[22] = test system: Burkholderia pseudomallei; assay: Attenuation of A549 cell invasion by Burkholderia pseudomallei KHW at 8 ug/ml in presence of 250 uM prochlorperazine; type: functional, organism-based
[23] = test system: Burkholderia pseudomallei; assay: Attenuation of THP1 cell invasion by Burkholderia pseudomallei KHW at 8 ug/ml in presence of 250 uM prochlorperazine; type: functional, organism-based; details: THP-1
[24] = test system: Burkholderia pseudomallei; assay: Attenuation of A549 cell invasion by Burkholderia pseudomallei KHW at 8 ug/ml in presence of 500 uM chlorpromazine; type: functional, organism-based
[25] = test system: Burkholderia pseudomallei; assay: Attenuation of THP1 cell invasion by Burkholderia pseudomallei KHW at 8 ug/ml in presence of 500 uM chlorpromazine; type: functional, organism-based; details: THP-1
[26] = test system: Burkholderia pseudomallei; assay: Attenuation of A549 cell invasion by Burkholderia pseudomallei KHW at 128 ug/ml; type: functional, organism-based
[27] = test system: Burkholderia pseudomallei; assay: Attenuation of THP1 cell invasion by Burkholderia pseudomallei KHW at 128 ug/ml; type: functional, organism-based; details: THP-1
[28] = test system: Burkholderia pseudomallei; assay: Antimicrobial activity against Burkholderia pseudomallei KHW in presence of 1000 uM chlorpromazine; type: functional
[29] = test system: Burkholderia pseudomallei; assay: Antimicrobial activity against Burkholderia pseudomallei KHW; type: functional
[30] = test system: Burkholderia pseudomallei; assay: Antimicrobial activity against Burkholderia pseudomallei KHW in presence of 1000 uM prochlorperazine; type: functional
[31] = test system: Burkholderia pseudomallei; assay: Antimicrobial activity against Burkholderia pseudomallei KHW in presence of 500 uM prochlorperazine; type: functional
[32] = test system: Burkholderia pseudomallei; assay: Antimicrobial activity against Burkholderia pseudomallei KHW in presence of 250 uM prochlorperazine; type: functional
[33] = test system: Burkholderia pseudomallei; assay: Antimicrobial activity against Burkholderia pseudomallei KHW in presence of 500 uM chlorpromazine; type: functional
[34] = test system: Burkholderia pseudomallei; assay: Antimicrobial activity against Burkholderia pseudomallei KHW in presence of 125 uM chlorpromazine; type: functional
[35] = test system: Burkholderia pseudomallei; assay: Antimicrobial activity against Burkholderia pseudomallei KHW in presence of 62.5 uM chlorpromazine; type: functional
[36] = test system: Burkholderia pseudomallei; assay: Antimicrobial activity against Burkholderia pseudomallei KHW in presence of 31.3 uM chlorpromazine; type: functional
[37] = test system: Burkholderia pseudomallei; assay: Antimicrobial activity against Burkholderia pseudomallei KHW in presence of 15.6 uM chlorpromazine; type: functional
[38] = test system: Burkholderia pseudomallei; assay: Antimicrobial activity against Burkholderia pseudomallei KHW in presence of 7.8 uM chlorpromazine; type: functional
[39] = test system: Burkholderia pseudomallei; assay: Antimicrobial activity against Burkholderia pseudomallei KHW in presence of 3.9 uM chlorpromazine; type: functional
[40] = test system: Burkholderia pseudomallei; assay: Attenuation of A549 cell invasion by Burkholderia pseudomallei KHW at 8 ug/ml; type: functional, organism-based
[41] = test system: Burkholderia pseudomallei; assay: Attenuation of THP1 cell invasion by Burkholderia pseudomallei KHW at 8 ug/ml; type: functional, organism-based; details: THP-1
[42] = test system: Burkholderia pseudomallei; assay: Attenuation of Burkholderia pseudomallei KHW cytotoxicity in A549 cells at 8 ug/ml in presence of 250 uM prochlorperazine; type: functional, organism-based
[43] = test system: Burkholderia pseudomallei; assay: Attenuation of Burkholderia pseudomallei KHW cytotoxicity in THP1 cells at 8 ug/ml in presence of 250 uM prochlorperazine; type: functional, organism-based; details: THP-1
[44] = test system: Burkholderia pseudomallei; assay: Attenuation of Burkholderia pseudomallei KHW cytotoxicity in A549 cells at 8 ug/ml in presence of 500 uM chlorpromazine; type: functional, organism-based
[45] = test system: Burkholderia pseudomallei; assay: Attenuation of Burkholderia pseudomallei KHW cytotoxicity in THP1 cells at 8 ug/ml in presence of 500 uM chlorpromazine; type: functional, organism-based; details: THP-1
[46] = test system: Burkholderia pseudomallei; assay: Attenuation of Burkholderia pseudomallei KHW cytotoxicity in A549 cells at 128 ug/ml; type: functional, organism-based
[47] = test system: Burkholderia pseudomallei; assay: Attenuation of Burkholderia pseudomallei KHW cytotoxicity in THP1 cells at 128 ug/ml; type: functional, organism-based; details: THP-1

SMILES: CC[C@H]1OC(=O)[C@H](C)[C@@H](O[C@H]2C[C@@](C)(OC)[C@@H](O)[C@H](C)O2)[C@H](C)[C@@H](O[C@@H]2O[C@H](C)C[C@H](N(C)C)[C@H]2O)[C@](C)(O)C[C@@H](C)C(=O)[C@H](C)[C@@H](O)[C@]1(C)O [ERYTHROMYCIN]
- MIC [1]: 128 µg/mL
- MIC [2]: 64 µg/mL
- MIC [3]: 64 µg/mL
- MIC [4]: 128 µg/mL
- MIC [5]: 128 µg/mL
- MIC [6]: < 0.25 µg/mL
- MIC [7]: 64 µg/mL
- MIC [8]: 128 µg/mL
- MIC [9]: 128 µg/mL
- MIC [10]: 128 µg/mL
- MIC [11]: 128 µg/mL
- MIC [12]: 128 µg/mL
- MIC [13]: 128 µg/mL
- MIC [14]: < 0.25 µg/mL
- MIC [15]: 128 µg/mL
- MIC [16]: 128 µg/mL
- MIC [17]: 128 µg/mL
- MIC [18]: 128 µg/mL
- MIC [19]: 128 µg/mL
- MIC [20]: 128 µg/mL
- MIC [21]: 128 µg/mL
- Activity [22]: Active
- Activity [23]: Active
- Activity [24]: Active
- Activity [25]: Active
- Activity [26]: Active
- Activity [27]: Active
- MIC [28]: < 0.25 µg/mL
- MIC [29]: 128 µg/mL (≈ 174 µM)
- MIC [30]: 8 µg/mL
- MIC [31]: 8 µg/mL
- MIC [32]: 8 µg/mL
- MIC [33]: 8 µg/mL
- MIC [34]: 128 µg/mL
- MIC [35]: 128 µg/mL
- MIC [36]: 128 µg/mL
- MIC [37]: 128 µg/mL
- MIC [38]: 128 µg/mL
- MIC [39]: 128 µg/mL
- Activity [40]: inactive
- Activity [41]: inactive
- Activity [42]: Active
- Activity [43]: Active
- Activity [44]: Active
- Activity [45]: Active
- Activity [46]: Active
- Activity [47]: Active

— ChEMBL document CHEMBL1142214, “Synergistic interaction between phenothiazines and antimicrobial agents against Burkholderia pseudomallei” (2007)
